# Literature values, collected in patent US20110105624A1, “ENDIPALENE FORMULATIONS IN THE TREATMENT OF PSORIASIS” (priority 2008, published 2011).
# Tested on: volunteers with psoriasis
compound,measurement,setting,value
"COc1c(OC)c(OC(C)=O)c2cc(Cl)ccc2c1OC(C)=O [Lonapalene, 6-chloro-2,3-dimethoxynaphtalendiacetate]",clinical improvement in lesions,"2% ointment, topical, compared with vehicle-treated sites",statistically significant clinical improvement
same,side effects related to topical application,topical application,serious side effects
